Reference: patent publication EP0742215A1, “Cillianon, antibiotic from penicillin spe., and chemical derivatives thereof, method for their preparation and application” (HOECHST AKTIENGESELLSCHAFT, priority 1995, dated 1996)

Columns and labels:
[1] = target: T1, humanen IL-4 Rezeptor (huIL-4R/Fc) (Homo sapiens, UniProt P24394); assay: Cell-free huIL-4 binding assay (IL-4 receptor test, ELISA with receptor/Fc fusion protein and biotinylated ligand); conditions: huIL-4R/Fc 500 ng/ml; biotinylated huIL-4 100 ng/ml; 1 h room temperature; PBSA with 5 % DMSO; Abbildung 3
T1 construct: die aus der extrazellulären Region von normalerweise membranständigen Rezeptoren bestehen
T1 sequence (P24394 26-232 limits assumed): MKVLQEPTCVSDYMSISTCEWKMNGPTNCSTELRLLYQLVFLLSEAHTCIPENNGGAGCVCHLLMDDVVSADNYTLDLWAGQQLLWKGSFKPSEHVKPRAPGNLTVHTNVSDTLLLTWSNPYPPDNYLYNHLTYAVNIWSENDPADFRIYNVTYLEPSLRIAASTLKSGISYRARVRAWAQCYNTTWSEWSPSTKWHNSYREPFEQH
From the text: Aus der EP 488 170 A1 sind zellfreie Bindungsteste bekannt. Für ihre Durchführung werden rekombinante chimäre Proteine verwendet, die aus der extrazellulären Region von normalerweise membranständigen Rezeptoren bestehen, an deren Carboxyterminus die Fc-Region einer schweren Immunglobulinkette bestehend aus Hinge-, CH2- und CH3-Domäne fusioniert wurde. Diese sogenannten Rezeptor/Fc-Fusionsproteine können unter Erhalt der spezifischen Rezeptorbindungsaktivität an Festphasen gebunden werden, die beispielsweise mit monoklonalen Antikörpern gerichtet gegen den Fc-Teil vorbeschichtet wurden. Als Festphase wurden für dieses Beispiel ®Nunc Typ B ELISA-Platten verwendet. Rezeptor/Fc-Fusionsproteine gelöst in PBS enthaltend 10 mg/ml BSA (PBSA) wurden an diese vorbehandelten Platten gebunden (huIL-4R/Fc: 500 ng/ml; muIL-4R/Fc: 250 ng/ml; huIL-1R/Fc: 125 ng/ml; 1 h bei Raumtemperatur). Nach Waschen wurden die Peptide beziehungsweise die jeweiligen spezifischen unmarkierten Liganden (huIL-4R/Fc: huIL-4; muIL-4R/Fc: muIL-4; huIL-1R/Fc:huIL-1ra) in variierenden Konzentrationen und danach die spezifischen Liganden in biotinylierender Form in einer festen Konzentration zugegeben (100 ng/ml). Die Inkubation erfolgte 1 h bei Raumtemperatur in PBSA enthaltend 5 % DMSO. Nach Waschen erfolgte eine Inkubation mit Streptavidin/Peroxidase (Amersham, 1:2000 in PBSA) für 20 min bei Raumtemperatur. […]

[2] = Solubility (physicochemical properties, Table 1); conditions: in Methanol, Acetonitril, Chloroform und Benzol
From the text: (§1) Die physikalisch-chemisch sowie spektroskopischen Eigenschaften von Cillianon lassen sich wie folgt zusammenfassen: Tabelle 1

[3] = Stability (physicochemical properties, Table 1)
From the text: as §1

In the case of `Cc1cc(O)c2c3c(c(O)c4c(c13)OC(C)C4(C)C)C(=O)C(O)(O)C2=O` (centres unmarked) [Cillianon], the IC50 [1] is reported as 55.8 µM, the Löslichkeit [2] is reported as “lösliche” and the Stabilität ([3]; im sauren Milieu) is reported as “stabil”. For the same compound, the Stabilität ([3]; in wässrigem Alkali) was “unbeständig” and the Stabilität ([3]; unter Lichteinwirkung) was “unbeständig”.
